This is an account of results in patent US12421205B2, “GLP-1 receptor agonist” (HYUNDAI PHARM CO., LTD., priority 2019, dated 2025).

The target of data set [1] is T1, human GLP-1 receptor (Homo sapiens, UniProt P43220).
T1 construct: host or cells: CHO-K1
Put plainly: cAMP activity test (cAMP dynamic HTRF kit) in CHO-K1/GLP-1 receptor-expressing cells. It is filed as cell-based. The note with it: cAMP activity, CHO-K1/GLP-1 receptor-expressing cells; read-out: EC50. In outline: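 Cells in HBSS with 0.1% BSA, 0.5 mM IBMX and 5 mM HEPES, then lysed; cAMP-d2 and anti-cAMP cryptate added for 3 h. HTRF read-out, where FRET signal is inversely proportional to intracellular cAMP.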

Data set [2] addresses T2, hERG (Homo sapiens, UniProt Q12809).
T2 construct: purchased Invitrogen PV5365
Put plainly: hERG inhibition test (Predictor hERG Fluorescence Polarization assay kit). The settings on record: probe kit Tracer (fluorescent hERG ligand), hERG % inhibition at 10 uM, relative to E-4031 and solvent control. Format: binding. In outline: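 Competitive fluorescence-polarization binding of fluorescent tracer to hERG membrane preparation, 2.5 h at room temperature, mP read at 531/579 nm. % inhibition at 10 uM test compound, scaled between solvent control (0%) and E-4031 (100%).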

A value given as a limit tells only on which side of the number the result lay.

T1 sequence (P43220 24-463): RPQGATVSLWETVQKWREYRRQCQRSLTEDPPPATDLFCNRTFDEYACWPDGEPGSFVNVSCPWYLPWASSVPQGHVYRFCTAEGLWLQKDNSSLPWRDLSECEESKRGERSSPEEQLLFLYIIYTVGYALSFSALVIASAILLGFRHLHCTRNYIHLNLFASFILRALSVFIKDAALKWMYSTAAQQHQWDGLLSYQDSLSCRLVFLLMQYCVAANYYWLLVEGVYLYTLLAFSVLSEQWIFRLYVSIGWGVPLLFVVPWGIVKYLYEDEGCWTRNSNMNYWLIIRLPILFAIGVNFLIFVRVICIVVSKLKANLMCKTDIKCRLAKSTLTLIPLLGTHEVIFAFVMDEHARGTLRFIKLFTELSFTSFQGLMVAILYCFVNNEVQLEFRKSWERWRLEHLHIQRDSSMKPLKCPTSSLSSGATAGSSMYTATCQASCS
T2 sequence (Q12809 whole entry): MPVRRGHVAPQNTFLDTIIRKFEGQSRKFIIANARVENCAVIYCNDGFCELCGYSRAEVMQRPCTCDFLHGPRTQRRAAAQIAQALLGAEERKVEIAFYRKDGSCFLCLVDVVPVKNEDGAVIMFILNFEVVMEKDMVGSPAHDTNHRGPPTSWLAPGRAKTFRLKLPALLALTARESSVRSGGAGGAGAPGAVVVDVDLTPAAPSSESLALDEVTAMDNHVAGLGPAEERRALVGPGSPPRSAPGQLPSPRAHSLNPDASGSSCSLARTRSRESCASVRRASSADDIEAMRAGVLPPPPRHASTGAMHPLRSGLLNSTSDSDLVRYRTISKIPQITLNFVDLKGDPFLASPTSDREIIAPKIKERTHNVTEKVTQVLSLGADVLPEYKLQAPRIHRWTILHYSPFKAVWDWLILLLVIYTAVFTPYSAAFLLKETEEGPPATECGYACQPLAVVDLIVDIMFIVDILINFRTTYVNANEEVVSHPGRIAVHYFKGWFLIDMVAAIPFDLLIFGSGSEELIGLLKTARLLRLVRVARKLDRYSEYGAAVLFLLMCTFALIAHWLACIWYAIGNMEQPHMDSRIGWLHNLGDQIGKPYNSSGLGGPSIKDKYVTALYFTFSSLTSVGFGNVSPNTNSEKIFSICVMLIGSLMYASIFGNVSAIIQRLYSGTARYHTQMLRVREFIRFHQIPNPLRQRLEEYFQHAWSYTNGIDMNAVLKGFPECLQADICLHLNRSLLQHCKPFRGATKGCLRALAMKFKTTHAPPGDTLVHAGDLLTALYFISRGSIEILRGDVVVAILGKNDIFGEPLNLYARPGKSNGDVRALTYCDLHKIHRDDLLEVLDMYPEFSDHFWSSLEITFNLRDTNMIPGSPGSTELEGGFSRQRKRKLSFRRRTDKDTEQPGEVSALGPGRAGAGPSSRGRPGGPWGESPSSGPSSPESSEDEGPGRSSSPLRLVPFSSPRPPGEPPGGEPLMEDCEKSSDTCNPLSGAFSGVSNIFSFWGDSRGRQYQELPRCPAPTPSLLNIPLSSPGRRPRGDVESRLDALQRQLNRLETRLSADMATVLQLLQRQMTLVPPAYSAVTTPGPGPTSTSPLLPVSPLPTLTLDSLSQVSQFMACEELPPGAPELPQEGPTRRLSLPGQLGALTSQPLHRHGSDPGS

A word on the EC50: it is the concentration that produces a half-maximal response. Broadly, the inhibition is the drop in the measured response relative to a control, in per cent. Take `N#Cc1ccc(COc2cc(-c3ccc(Cc4nc5ccc(C(=O)O)cc5n4CC4CCCO4)c(F)c3)ccc2F)c(F)c1` (stereo not shown) [Example 96, 2-((3′-(4-cyano-2-fluorobenzyloxy)-3,4′-difluorobiphenyl-4-yl)methyl)-1-((tetrahydrofuran-2-yl)methyl)-1H-benzo[d]imidazole-6-carboxylic acid]: the EC50 in data set [1] is 830 nM. In addition, in data set [2], the inhibition at 2.5 h, 10 µM was 5.19%.

In the case of `N#Cc1ccc(COc2cccc(-c3ccc(Cc4nc5ccc(C(=O)O)cc5n4CC4CCCO4)c(F)c3F)n2)c(F)c1` (stereo not shown) [Example 62, 2-(4-(6-(4-cyano-2-fluorobenzyloxy)pyridin-2-yl)-2,3-difluorobenzyl)-1-((tetrahydrofuran-2-yl)methyl)-1H-benzo[d]imidazole-6-carboxylic acid], in data set [1], the concentration for a half-maximal effect (EC50) came to 37 nM. For the same compound, the inhibition at 2.5 h, 10 µM in data set [2] was -7.49%.

Regarding `N#Cc1ccc(COc2cccc(-c3cc(F)c(Cc4nc5ccc(C(=O)O)cc5n4C[C@@H]4CCO4)cc3F)n2)c(F)c1` [Example 115, (S)-2-(4-(6-((4-cyano-2-fluorobenzyl)oxy)pyridin-2-yl)-2,5-difluorobenzyl)-1-(oxetan-2-ylmethyl)-1H-benzo[d]imidazole-6-carboxylic acid], the EC50 in data set [1] is less than 3.2 nM. Besides, the inhibition at 2.5 h, 10 µM in data set [2] is -2.45%.

On to `N#Cc1ccc(COc2cccc(-c3ccc(Cc4nc5ccc(C(=O)O)cc5n4CC4CCCO4)cc3F)c2)c(F)c1` (stereo not shown) [Example 9, 2-((3′-(4-cyano-2-fluorobenzyloxy)-2-fluorobiphenyl-4-yl)methyl)-1-((tetrahydrofuran-2-yl)methyl)-1H-benzo[d]imidazole-6-carboxylic acid], for which the EC50 in data set [1] is 75 nM. Further, the inhibition at 2.5 h, 10 µM in data set [2] was 0.48%.

`O=C(O)c1ccc2nc(Cc3ccc(-c4cccc(OCc5ccc(Cl)cc5F)c4)cc3F)n(Cc3cnco3)c2c1` [Example 32, 2-((3′-(4-chloro-2-fluorobenzyloxy)-3-fluorobiphenyl-4-yl)methyl)-1-(oxazol-5-ylmethyl)-1H-benzo[d]imidazole-6-carboxylic acid]: the EC50 in data set [1] is 32 nM. Moreover, the inhibition at 2.5 h, 10 µM in data set [2] was -11.7%.

Consider `O=C(O)c1ccc2nc(Cc3ccc(-c4ccc(F)c(OCc5ccc(Cl)cc5F)n4)c(F)c3)n(C[C@@H]3CCO3)c2c1` [Example 117, (S)-2-(4-(6-((4-chloro-2-fluorobenzyl)oxy)-5-fluoropyridin-2-yl)-3-fluorobenzyl)-1-(oxetan-2-ylmethyl)-1H-benzo[d]imidazole-6-carboxylic acid], for which the EC50 in data set [1] is less than 3.2 nM. For the same compound, in data set [2], the inhibition at 2.5 h, 10 µM is 12.5%.

As to `O=C(O)c1ccc2nc(Cc3ccc(-c4cccc(OCc5cc(F)cc(Cl)c5)n4)c(F)c3)n(CC3CCCO3)c2c1` (stereo not shown) [Example 100, 2-(4-(6-(3-chloro-5-fluorobenzyloxy)pyridin-2-yl)-3-fluorobenzyl)-1-((tetrahydrofuran-2-yl)methyl)-1H-benzo[d]imidazole-6-carboxylic acid], the concentration for a half-maximal effect (EC50) in data set [1] is 320 nM. Further, in data set [2], the inhibition at 2.5 h, 10 µM was -10.2%.

`COCCn1c(Cc2ccc(-c3cccc(OCc4ccc(Cl)cc4F)c3)cc2)nc2ccc(C(=O)O)cc21` [Example 22, 2-((3′-(4-chloro-2-fluorobenzyloxy)biphenyl-4-yl)methyl)-1-(2-methoxyethyl)-1H-benzo[d]imidazole-6-carboxylic acid]: the half-maximal effective concentration (EC50) in data set [1] amounted to 130 nM. The inhibition at 2.5 h, 10 µM in data set [2] is -15.5%.

With `O=C(O)c1ccc2nc(Cc3ccc(-c4cccc(OCc5ccc([N+](=O)[O-])cc5)n4)c(F)c3)n(C[C@@H]3CCO3)c2c1` [Example 124, (S)-2-(3-fluoro-4-(6-((4-nitrobenzyl)oxy)pyridin-2-yl)benzyl)-1-(oxetan-2-ylmethyl)-1H-benzo[d]imidazole-6-carboxylic acid], the EC50 in data set [1] is 4.3 nM. For the same compound, the inhibition at 2.5 h, 10 µM in data set [2] was 7.28%.

For `N#Cc1ccc(COc2cccc(-c3ccc(Cc4nc5ccc(C(=O)O)cc5n4CCF)c(F)c3)c2)c(F)c1` [Example 57, 2-((3′-(4-cyano-2-fluorobenzyloxy)-3-fluorobiphenyl-4-yl)methyl)-1-(2-fluoroethyl)-1H-benzo[d]imidazole-6-carboxylic acid], in data set [1], the half-maximal effective concentration (EC50) came to 850 nM. The inhibition at 2.5 h, 10 µM in data set [2] is 6.42%.

With `N#Cc1ccc(COc2cccc(-c3ccc(Cc4nc5ccc(C(=O)O)cc5n4CC4CCCO4)c(F)c3)n2)c(F)c1` (stereo not shown) [Example 15, 2-(4-(6-(4-cyano-2-fluorobenzyloxy)pyridin-2-yl)-2-fluorobenzyl)-1-((tetrahydrofuran-2-yl)methyl)-1H-benzo[d]imidazole-6-carboxylic acid], the EC50 in data set [1] was determined as 16 nM. Besides, the inhibition at 2.5 h, 10 µM in data set [2] is 1.67%.

As for `O=C(O)c1ccc2nc(Cc3ccc(-c4cccc(OCc5c(F)cccc5Cl)n4)c(F)c3)n(CC3CCCO3)c2c1` (stereo not shown) [Example 101, 2-(4-(6-(2-chloro-6-fluorobenzyloxy)pyridin-2-yl)-3-fluorobenzyl)-1-((tetrahydrofuran-2-yl)methyl)-1H-benzo[d]imidazole-6-carboxylic acid], in data set [1], the EC50 worked out at 320 nM. For the same compound, the inhibition at 2.5 h, 10 µM in data set [2] was -2.37%.

As for `COCCn1c(Cc2c(F)cc(-c3cccc(OCc4ccc(Cl)cc4F)n3)cc2F)nc2ccc(C(=O)O)cc21` [Example 37, 2-(4-(6-(4-chloro-2-fluorobenzyloxy)pyridin-2-yl)-2,6-difluorobenzyl)-1-(2-methoxyethyl)-1H-benzo[d]imidazole-6-carboxylic acid], the 50% effective concentration (EC50) in data set [1] was 13 nM. In addition, the inhibition at 2.5 h, 10 µM in data set [2] is -10.6%.

In the case of `COCCn1c(Cc2ccc(-c3cccc(OCc4ccc(C#N)cc4F)c3)c(F)c2)nc2ccc(C(=O)O)cc21` [Example 40, 2-((3′-(4-cyano-2-fluorobenzyloxy)-2-fluorobiphenyl-4-yl)methyl)-1-(2-methoxyethyl)-1H-benzo[d]imidazole-6-carboxylic acid], the EC50 in data set [1] was found to be 260 nM. For the same compound, the inhibition at 2.5 h, 10 µM in data set [2] was 6.91%.

Take `O=C(O)c1ccc2nc(Cc3ccc(-c4cccc(OCc5ccc(Cl)cc5F)c4)c(F)c3)n(Cc3cnco3)c2c1` [Example 33, 2-((3′-(4-chloro-2-fluorobenzyloxy)-2-fluorobiphenyl-4-yl)methyl)-1-(oxazol-5-ylmethyl)-1H-benzo[d]imidazole-6-carboxylic acid]: the 50% effective concentration (EC50) in data set [1] amounted to 60 nM. The inhibition at 2.5 h, 10 µM in data set [2] was -9.08%.

`O=C(O)c1ccc2nc(Cc3ccc(-c4cccc(OCc5ccc(C(F)(F)F)cc5)n4)c(F)c3)n(CC3CCCO3)c2c1` (stereo not shown) [Example 97, 2-(3-fluoro-4-(6-(4-(trifluoromethyl)benzyloxy)pyridin-2-yl)benzyl)-1-((tetrahydrofuran-2-yl)methyl)-1H-benzo[d]imidazole-6-carboxylic acid]: the 50% effective concentration (EC50) in data set [1] worked out at 31 nM. For the same compound, in data set [2], the inhibition at 2.5 h, 10 µM was 6.11%.

On to `COCCn1c(Cc2ccc(-c3cccc(OCc4ccc(Cl)cc4F)n3)c(C)c2)nc2ccc(C(=O)O)cc21` [Example 4, 2-(4-(6-(4-chloro-2-fluorobenzyloxy)pyridin-2-yl)-3-methylbenzyl)-1-(2-methoxyethyl)-1H-benzo[d]imidazole-6-carboxylic acid], for which, in data set [1], the half-maximal effective concentration (EC50) turned out to be 200 nM. The inhibition at 2.5 h, 10 µM in data set [2] is -2.87%.

In the case of `O=C(O)c1ccc2nc(Cn3ccc(-c4cccc(OCc5ccc(Cl)cc5F)n4)cc3=O)n(C[C@@H]3CCCO3)c2c1` [Example 108, (S)-2-((4-(6-(4-chloro-2-fluorobenzyloxy)pyridin-2-yl)-2-oxopyridin-1(2H)-yl)methyl)-1-((tetrahydrofuran-2-yl)methyl)-1H-benzo[d]imidazole-6-carboxylic acid], the EC50 in data set [1] was 130 nM. For the same compound, the inhibition at 2.5 h, 10 µM in data set [2] is 4%.

With `O=C(O)c1ccc2nc(Cc3ccc(-c4cccc(OCc5ccc(Cl)cc5F)n4)cc3F)n(CCF)c2c1` [Example 43, 2-(4-(6-(4-chloro-2-fluorobenzyloxy)pyridin-2-yl)-2-fluorobenzyl)-1-(2-fluoroethyl)-1H-benzo[d]imidazole-6-carboxylic acid], in data set [1], the concentration for a half-maximal effect (EC50) was determined as 72 nM. The inhibition at 2.5 h, 10 µM in data set [2] is -2.26%.

For the compound `O=C(O)c1ccc2nc(Cc3ccc(-c4cccc(OCc5ccc([N+](=O)[O-])cc5)n4)cc3F)n(CC3CCCO3)c2c1` (stereo not shown) [Example 88, 2-(2-fluoro-4-(6-(4-nitrobenzyloxy)pyridin-2-yl)benzyl)-1-((tetrahydrofuran-2-yl)methyl)-1H-benzo[d]imidazole-6-carboxylic acid], the EC50 in data set [1] amounted to 16 nM. In data set [2], the inhibition at 2.5 h, 10 µM was 22.1%.

Take `N#Cc1ccc(COc2cccc(-c3cc(F)c(Cc4nc5ccc(C(=O)O)cc5n4C[C@@H]4CCCO4)cc3F)n2)c(F)c1` [Example 120, (S)-2-(4-(6-((4-cyano-2-fluorobenzyl)oxy)pyridin-2-yl)-2,5-difluorobenzyl)-1-((tetrahydrofuran-2-yl)methyl)-1H-benzo[d]imidazole-6-carboxylic acid]: in data set [1], the concentration giving a half-maximal response (EC50) was less than 3.2 nM. Besides, the inhibition at 2.5 h, 10 µM in data set [2] is -3.82%.

For the compound `O=C(O)c1ccc2nc(Cc3ccc(-c4cccc(OCc5ccc(Cl)cc5F)n4)c(F)c3)n(CCF)c2c1` [Example 55, 2-(4-(6-(4-chloro-2-fluorobenzyloxy)pyridin-2-yl)-3-fluorobenzyl)-1-(2-fluoroethyl)-1H-benzo[d]imidazole-6-carboxylic acid], the EC50 in data set [1] came out at 210 nM. In addition, the inhibition at 2.5 h, 10 µM in data set [2] is 35.4%.

As to `O=C(O)c1ccc2nc(Cc3ccc(-c4cccc(OCc5ccc(Cl)cc5F)n4)c(F)c3)n(Cc3cccs3)c2c1` [Example 50, 2-(4-(6-(4-chloro-2-fluorobenzyloxy)pyridin-2-yl)-3-fluorobenzyl)-1-(thiophen-2-ylmethyl)-1H-benzo[d]imidazole-6-carboxylic acid], the EC50 in data set [1] is 15 nM. The inhibition at 2.5 h, 10 µM in data set [2] is 4.72%.
